Test system: P12-Ichikawa
Assay: cell viability relative to DMSO control; higher = less cytotoxic
Conditions: 48 h
Method in brief: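 Library compounds in DMSO were pin-dosed into 1536-well plates (5 μl) holding NOMO1 or SEM (500 cells/well) or P12-Ichikawa (1000 cells/well) leukemia cells, across an 11-point threefold series of 47 μM to 0.79 nM. Each cell line had been adapted for at least four passages in each medium. CellTiter-Glo One luminescence was read after 48 h at 37°C. Viability is the per-plate percentage relative to DMSO wells, with cell-free wells as background.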

[1] = HPLM + 10% dialyzed FBS, 0.000781 µM
[2] = HPLM + 10% dialyzed FBS, 0.00234 µM
[3] = HPLM + 10% dialyzed FBS, 0.00702 µM
[4] = HPLM + 10% dialyzed FBS, 0.0211 µM
[5] = HPLM + 10% dialyzed FBS, 0.0632 µM
[6] = HPLM + 10% dialyzed FBS, 0.19 µM
[7] = HPLM + 10% dialyzed FBS, 0.569 µM
[8] = HPLM + 10% dialyzed FBS, 1.71 µM
[9] = HPLM + 10% dialyzed FBS, 5.12 µM
[10] = HPLM + 10% dialyzed FBS, 15.4 µM
[11] = HPLM + 10% dialyzed FBS, 46.1 µM
[12] = RPMI 5 mM glucose + 10% FBS, 0.000781 µM
[13] = RPMI 5 mM glucose + 10% FBS, 0.00234 µM
[14] = RPMI 5 mM glucose + 10% FBS, 0.00702 µM
[15] = RPMI 5 mM glucose + 10% FBS, 0.0211 µM
[16] = RPMI 5 mM glucose + 10% FBS, 0.0632 µM
[17] = RPMI 5 mM glucose + 10% FBS, 0.19 µM
[18] = RPMI 5 mM glucose + 10% FBS, 0.569 µM
[19] = RPMI 5 mM glucose + 10% FBS, 1.71 µM
[20] = RPMI 5 mM glucose + 10% FBS, 5.12 µM
[21] = RPMI 5 mM glucose + 10% FBS, 15.4 µM
[22] = RPMI 5 mM glucose + 10% FBS, 46.1 µM
[23] = RPMI 5 mM glucose + 10% dialyzed FBS, 0.000781 µM
[24] = RPMI 5 mM glucose + 10% dialyzed FBS, 0.00234 µM
[25] = RPMI 5 mM glucose + 10% dialyzed FBS, 0.00702 µM
[26] = RPMI 5 mM glucose + 10% dialyzed FBS, 0.0211 µM
[27] = RPMI 5 mM glucose + 10% dialyzed FBS, 0.0632 µM
[28] = RPMI 5 mM glucose + 10% dialyzed FBS, 0.19 µM
[29] = RPMI 5 mM glucose + 10% dialyzed FBS, 0.569 µM
[30] = RPMI 5 mM glucose + 10% dialyzed FBS, 1.71 µM
[31] = RPMI 5 mM glucose + 10% dialyzed FBS, 5.12 µM
[32] = RPMI 5 mM glucose + 10% dialyzed FBS, 15.4 µM
[33] = RPMI 5 mM glucose + 10% dialyzed FBS, 46.1 µM

Structure (SMILES)	cell viability [1] [%]	cell viability [2] [%]	cell viability [3] [%]	cell viability [4] [%]	cell viability [5] [%]	cell viability [6] [%]	cell viability [7] [%]	cell viability [8] [%]	cell viability [9] [%]	cell viability [10] [%]	cell viability [11] [%]	cell viability [12] [%]	cell viability [13] [%]	cell viability [14] [%]	cell viability [15] [%]	cell viability [16] [%]	cell viability [17] [%]	cell viability [18] [%]	cell viability [19] [%]	cell viability [20] [%]	cell viability [21] [%]	cell viability [22] [%]	cell viability [23] [%]	cell viability [24] [%]	cell viability [25] [%]	cell viability [26] [%]	cell viability [27] [%]	cell viability [28] [%]	cell viability [29] [%]	cell viability [30] [%]	cell viability [31] [%]	cell viability [32] [%]	cell viability [33] [%]
CN(C)C/C=C/C(=O)Nc1ccc(C(=O)Nc2cccc(Nc3ncc(Cl)c(-c4c[nH]c5ccccc45)n3)c2)cc1	81.9	85.6	85.8	94.8	82.5	78.6	17.3	10.2	4.95	3.8	3.94	78	85.3	84.2	89	92.9	77.1	12.3	6.62	3.34	2.59	3.22	79.7	82.9	93	97	93.2	77.6	17.9	11.6	5.08	2.82	3.14
Cc1nc(-c2ccc(OCC(C)C)c(C#N)c2)sc1C(=O)O	114	124	122	117	119	117	112	116	119	106	92.7	–	–	–	–	–	–	–	–	–	–	–	–	–	–	–	–	–	–	–	–	–	–
CN(CCOc1ccc(CC2SC(=O)NC2=O)cc1)c1ccccn1 (stereo not drawn)	116	124	113	121	116	115	120	114	114	111	103	123	130	122	116	120	125	129	125	115	113	106	123	123	127	119	116	123	127	118	113	112	97.4
CCn1nnc2c(N3CCOCC3)nc(-c3ccc(NC(=O)Nc4ccc(C(=O)N5CCN(C)CC5)cc4)cc3)nc21	103	109	99.8	92.6	91.6	76.3	101	71	76	70.2	68.9	97.5	98.4	99.4	83.6	72.3	55.3	94.3	55.2	54.9	56.9	59.4	93.7	106	88.5	70.6	69.9	59.6	103	56.9	58.8	54.4	50.1
Nc1ccc(C(=O)c2cc3c(ccc4ccccc43)[nH]2)cc1	121	124	122	118	120	109	96.4	81.4	31.1	10.6	5.96	118	112	115	118	112	108	102	77.5	40.7	12.9	8.36	118	115	117	102	116	111	91	74.9	56.6	13.7	5.99

Source: the supplement of paper PMC11451515
